According to ChEMBL document CHEMBL1201862, “PubChem BioAssay data set” (2004):
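Dose response: 5 concentrations. Exposure: 48 h. Format: 96-well plates. Endpoint: linear interpolation; highest concentration if not reached. At the GI50, growth is halved.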 Activity calls are given as the source filed them. No stated cut-off is given here; in the data, active = GI50 up to about 1.1 µM and inactive = higher.

What was measured:
Experiment in all cases: DTP human tumour cell line panel, 48 h
NCI-H226 = tested on: NCI-H226
SF-268 = tested on: SF-268
ACHN = tested on: ACHN
HOP-92 = tested on: HOP-92
MDA-MB-435 = tested on: MDA-MB-435
A498 = tested on: A498
SK-MEL-5 = tested on: SK-MEL-5
LOX IMVI = tested on: LOX IMVI
OVCAR-5 = tested on: OVCAR-5
COLO 205 = tested on: COLO 205
SF-295 = tested on: SF-295
EKVX = tested on: EKVX
DU-145 = tested on: DU-145
HCT-15 = tested on: HCT-15
SR = tested on: SR
A549 = tested on: A549
HCC 2998 = tested on: HCC 2998
HCT-116 = tested on: HCT-116
OVCAR-8 = tested on: OVCAR-8
TK-10 = tested on: TK-10

SMILES	GI50 (NCI-H226)	GI50 (SF-268)	GI50 (ACHN)	GI50 (HOP-92)	GI50 (MDA-MB-435)	GI50 (A498)	GI50 (SK-MEL-5)	GI50 (LOX IMVI)	GI50 (OVCAR-5)	GI50 (COLO 205)	GI50 (SF-295)	GI50 (EKVX)	GI50 (DU-145)	GI50 (HCT-15)	GI50 (SR)	GI50 (A549)	GI50 (HCC 2998)	GI50 (HCT-116)	GI50 (OVCAR-8)	GI50 (TK-10)
CCCCCCCCCCCCCCCC(=O)OCC(O)C1OC(=O)C(O)=C1O (stereo not given)	22.9 µM (inactive)	26.4 µM (inactive)	34 µM (inactive)	< 0.01 µM (active)	21 µM (inactive)	35.7 µM (inactive)	> 100 µM (inactive)	26.2 µM (inactive)	33.9 µM (inactive)	> 100 µM (inactive)	20 µM (inactive)	> 100 µM (inactive)	> 100 µM (inactive)	32.5 µM	58.2 µM (inactive)	21.8 µM (inactive)	> 100 µM (inactive)	19.3 µM (inactive)		
COC(=O)CCc1ccc2c(c1)CCC2	> 100 µM (inactive)	> 100 µM (inactive)	> 100 µM (inactive)	15.1 µM (inactive)	> 100 µM (inactive)		> 100 µM (inactive)	> 100 µM (inactive)	> 100 µM (inactive)	> 100 µM (inactive)	> 100 µM (inactive)		> 100 µM (inactive)	> 100 µM	> 100 µM (inactive)	> 100 µM (inactive)	> 100 µM (inactive)	> 100 µM (inactive)	> 100 µM (inactive)	> 100 µM (inactive)
Cc1cccc2c1CC(Cc1ccccc1C(=O)O)C2=O (stereo not given)	> 100 µM (inactive)	> 100 µM (inactive)	> 100 µM (inactive)	> 100 µM (inactive)	> 100 µM (inactive)		> 100 µM (inactive)	> 100 µM (inactive)	> 100 µM (inactive)	> 100 µM (inactive)	> 100 µM (inactive)	> 100 µM (inactive)	> 100 µM (inactive)	> 100 µM	> 100 µM (inactive)	> 100 µM (inactive)	> 100 µM (inactive)	> 100 µM (inactive)	> 100 µM (inactive)	> 100 µM (inactive)
CC(C)(C)/C(O)=C\c1nc2cc(F)c(F)cc2[nH]c1=O	> 100 µM (inactive)	> 100 µM (inactive)	> 100 µM (inactive)	> 100 µM (inactive)	> 100 µM (inactive)	> 100 µM (inactive)	> 100 µM (inactive)	> 100 µM (inactive)		> 100 µM (inactive)	> 100 µM (inactive)	> 100 µM (inactive)	25.7 µM (inactive)	> 100 µM	> 100 µM (inactive)		> 100 µM (inactive)	> 100 µM (inactive)	> 100 µM (inactive)	> 100 µM (inactive)
Cn1c2ccccc2c(=NNc2ccc(C(=O)O)cc2)c2ccccc21	17.7 µM (inactive)	15.8 µM (inactive)	15.3 µM (inactive)	20.5 µM (inactive)	19 µM (inactive)		17.6 µM (inactive)	10.6 µM (inactive)	17.8 µM (inactive)	15.3 µM (inactive)	20.8 µM (inactive)	9.25 µM (inactive)	19.5 µM (inactive)	18.8 µM	13.8 µM (inactive)	14.4 µM (inactive)	8.38 µM (inactive)	7.5 µM (inactive)	14.8 µM (inactive)	21.3 µM (inactive)
CN1CCN(c2ccc3[nH]c(-c4ccc5[nH]c(CCCc6ccc(N(CCCl)CCCl)cc6)nc5c4)nc3c2)CC1	> 100 µM (inactive)	> 100 µM (inactive)	> 100 µM (inactive)	> 100 µM (inactive)	> 100 µM (inactive)	> 100 µM (inactive)	> 100 µM (inactive)	60.7 µM (inactive)	> 100 µM (inactive)	> 100 µM (inactive)	> 100 µM (inactive)		> 100 µM (inactive)	> 100 µM	96.2 µM (inactive)	> 100 µM (inactive)	> 100 µM (inactive)	> 100 µM (inactive)	> 100 µM (inactive)	> 100 µM (inactive)
COc1ccc2[nH]cc(CN3CCC(CO)(c4ccccc4)CC3)c2c1	43.5 µM (inactive)	11.9 µM (inactive)	20.2 µM (inactive)		20.6 µM (inactive)	45.8 µM (inactive)	14.1 µM (inactive)	16.8 µM (inactive)	68.5 µM (inactive)	18.3 µM (inactive)	16.1 µM (inactive)	8.28 µM (inactive)	45.2 µM (inactive)	35.1 µM	22.1 µM (inactive)	22.5 µM (inactive)	21 µM (inactive)	15 µM (inactive)	52.7 µM (inactive)	95.9 µM (inactive)
